In one assay the target is T1, NLRP3 inflammasome (Mus musculus, UniProt Q8R4B8).
T1 construct: endogenous in cells; host or cells: primary mouse bone marrow-derived dendritic cells (BMDCs), LPS-primed
Description: IL-1β release from LPS-primed BMDCs (ELISA) as readout of NLRP3 inflammasome activation. In kind it is cell-based. The conditions noted are these: compound 50 μM; for Average (% positive control): IL-1β release, positive control nigericin 5 μM; for Average IL-1β / IL-1β: LPS-primed BMDCs; for IL-1β: single replicates. Put shortly: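 NLRP3 inflammasome activation was read out as IL-1β released into the supernatant, measured by ELISA. Murine BMDCs were primed with LPS (50 ng ml^−1, 3 hours), then incubated with compounds for 3 hours, with each condition run in three technical replicates. Nigericin at 5 μM acted as the positive control activator, and IL-1β release was also expressed as a percentage of that control.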

The next assay concerns BMDCs. Nature of the assay: LDH release (lytic cell death, pyroptosis) from LPS-primed BMDCs. In kind it is cell-based, mouse. The conditions noted are these: compound 50 μM; for Average (% positive control): LDH release, positive control nigericin 5 μM; for cytotoxicity at 50 µM: Mus musculus, BMDC, LPS-primed BMDCs. Put shortly: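 LDH released into medium, detected colorimetrically, served as the pyroptosis read-out in triplicate. LPS-primed (50 ng ml^−1, 3 h) murine bone marrow-derived dendritic cells received test compounds, typically 50 μM, or nigericin (5 μM), R837 or CL097 (100 μM) for 3 hours.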
A general note: LDH leaks from cells whose membrane has failed.

[1] abbreviates: read-out: Average LDH release (% of max.).
Where [2] appears, read: single replicates, read-out: LDH release (% of max.).

Molecules are shown by their SMILES. Several values for one entry are separate records, joined by “and”; a condition that tells them apart may be missing. Identical values can stand only once. Like-named read-outs stand apart in the source and are kept apart here.

T1 sequence (Q8R4B8 whole entry): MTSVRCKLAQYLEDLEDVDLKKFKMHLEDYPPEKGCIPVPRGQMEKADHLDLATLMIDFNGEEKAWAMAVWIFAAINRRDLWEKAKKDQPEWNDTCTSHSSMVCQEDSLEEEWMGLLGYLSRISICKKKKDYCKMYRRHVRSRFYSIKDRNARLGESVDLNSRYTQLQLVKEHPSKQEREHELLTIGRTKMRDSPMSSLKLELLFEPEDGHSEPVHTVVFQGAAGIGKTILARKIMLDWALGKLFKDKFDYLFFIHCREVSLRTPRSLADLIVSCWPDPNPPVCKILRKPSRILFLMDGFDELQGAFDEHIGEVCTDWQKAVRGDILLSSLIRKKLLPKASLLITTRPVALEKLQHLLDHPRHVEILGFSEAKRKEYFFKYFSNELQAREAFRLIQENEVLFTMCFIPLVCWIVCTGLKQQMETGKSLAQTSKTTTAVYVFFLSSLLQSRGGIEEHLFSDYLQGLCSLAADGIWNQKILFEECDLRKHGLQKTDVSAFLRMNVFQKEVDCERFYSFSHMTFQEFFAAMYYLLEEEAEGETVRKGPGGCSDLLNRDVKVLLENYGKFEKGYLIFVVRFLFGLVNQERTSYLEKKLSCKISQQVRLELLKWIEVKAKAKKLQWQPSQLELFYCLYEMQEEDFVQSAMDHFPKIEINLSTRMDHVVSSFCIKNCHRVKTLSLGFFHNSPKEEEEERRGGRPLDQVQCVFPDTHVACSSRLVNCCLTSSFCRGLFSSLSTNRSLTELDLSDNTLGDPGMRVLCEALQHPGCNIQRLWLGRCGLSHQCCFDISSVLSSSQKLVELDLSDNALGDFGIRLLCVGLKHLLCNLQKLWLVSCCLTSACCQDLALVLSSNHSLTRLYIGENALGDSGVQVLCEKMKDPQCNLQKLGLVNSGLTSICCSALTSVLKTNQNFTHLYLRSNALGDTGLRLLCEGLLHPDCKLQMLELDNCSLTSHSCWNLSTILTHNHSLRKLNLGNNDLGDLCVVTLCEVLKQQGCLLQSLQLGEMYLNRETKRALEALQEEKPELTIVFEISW

In the case of `O=C(Nc1cccc(Cl)c1)N1CCOCC1c1nc(-c2cccs2)no1` (stereo not drawn) [L01.090, N-(3-chlorophenyl)-3-[3-(thiophen-2-yl)-1,2,4-oxadiazol-5-yl]morph-oline-4-carboxamide], the results for the “Average (% positive control)” value at NLRP3 inflammasome and in the assay with BMDCs were 1.044 % positive control and 20.610 % positive control, respectively. At NLRP3 inflammasome, the “Average IL-1β” value came out at 0.075 ng/mL. For the same compound, the “IL-1β” value at NLRP3 inflammasome is 0.079 ng/mL and 0.077 ng/mL and 0.069 ng/mL. The cytotoxicity at 50 µM in the assay on BMDCs (setting [1]) came out at 15.1%; in the assay on BMDCs (setting [2]), 15.3%.

For `O=C(Nc1ccccc1)Nc1ccc(NC(=O)c2ccoc2)cc1` [L01.092, N-{4-[(phenylcarbamo-yl)amino]phenyl}furan-3-carboxamide], the entries for the “Average (% positive control)” value on NLRP3 inflammasome and in the assay on BMDCs were 15.066 % positive control and 20.483 % positive control, respectively. Moreover, the “Average IL-1β” value on NLRP3 inflammasome was found to be 1.080 ng/mL. For the same compound, the “IL-1β” value at NLRP3 inflammasome is 1.253 ng/mL and 1.060 ng/mL and 0.927 ng/mL. Besides, the cytotoxicity at 50 µM in the assay with BMDCs (setting [1]) stood at 15%; in the assay on BMDCs (setting [2]), 16.4%.

On to `CC(C)CC(NC(=O)Nc1cccc(N2CCC(C)CC2)c1)c1nc(-c2nnc[nH]2)no1` (stereo not drawn) [L01.093, 3-{3-methyl-1-[3-(4H-1,2,4-triazol-3-yl)-1,2,4-oxadiazol-5-yl]butyl}-1-[3-(4-methylpiperidin-1-yl)phenyl]urea], for which, at NLRP3 inflammasome, the “Average (% positive control)” value is on record as 0.998 % positive control; the “Average IL-1β” value was 0.072 ng/mL; the “IL-1β” value was 0.056 ng/mL and 0.050 ng/mL and 0.108 ng/mL. Besides, the “Average (% positive control)” value with BMDCs turned out to be 11.139 % positive control. Besides, the cytotoxicity at 50 µM in the assay with BMDCs (setting [1]) was found to be 8.15%. Further, the cytotoxicity at 50 µM in the assay on BMDCs (setting [2]) was found to be 6.68%.

For `CC(=NO)c1ccc(NC(=O)Nc2ccccc2)cc1` [L01.095, 3-{4-[1-(hydroxyimino)-ethyl]phenyl}-1-phenyl-urea], at NLRP3 inflammasome, the “Average (% positive control)” value is on record as 1.703 % positive control; the “Average IL-1β” value was found to be 0.122 ng/mL; the “IL-1β” value is 0.137 ng/mL and 0.128 ng/mL and 0.102 ng/mL. Further, in the assay with BMDCs, the “Average (% positive control)” value was determined as 7.959 % positive control. In addition, in the assay with BMDCs (setting [1]), the cytotoxicity at 50 µM is 5.82%. The cytotoxicity at 50 µM in the assay with BMDCs (setting [2]) was 5.21%.

For `CC(C)C(NC(=O)Nc1ccc(Cl)cc1)c1nc(-c2ccccc2)no1` (stereo not drawn) [L01.097, 1-(4-chlorophenyl)-3-[2-methyl-1-(3-phenyl-1,2,4-oxadiazol-5-yl)-propyl]urea], the “Average (% positive control)” value on NLRP3 inflammasome came out at 1.765 % positive control; in the assay with BMDCs it was 51.271 % positive control. Further, the “Average IL-1β” value at NLRP3 inflammasome was determined as 0.126 ng/mL. At NLRP3 inflammasome, the “IL-1β” value is 0.121 ng/mL and 0.143 ng/mL and 0.116 ng/mL. Moreover, the cytotoxicity at 50 µM came to 37.5% in the assay with BMDCs (setting [1]) and 39.5% in the assay on BMDCs (setting [2]).

In the case of `O=C(Nc1cccc(S(=O)(=O)C2CCCC2)c1)N1CCCCC1c1nc(-c2ccccc2)no1` (stereo not drawn) [L01.099, N-[3-(cyclopentane-sulfonyl)phenyl]-2-(3-phenyl-1,2,4-oxadiazol-5-yl)piperidine-1-carboxamide], on NLRP3 inflammasome, the “Average (% positive control)” value was determined as 0.932 % positive control; the “Average IL-1β” value is 0.067 ng/mL; the “IL-1β” value is 0.074 ng/mL and 0.067 ng/mL and 0.059 ng/mL. In addition, the “Average (% positive control)” value in the assay on BMDCs is given as 13.410 % positive control. The cytotoxicity at 50 µM in the assay with BMDCs (setting [1]) is 9.81%. Moreover, the cytotoxicity at 50 µM with BMDCs (setting [2]) came to 10.6%.

`O=C(Nc1ccccc1)Nc1ccc(NC(=O)C2CCOC2)cc1` (stereo not drawn) [L01.101, N-{4-[(phenylcarbamo-yl)amino]phenyl}oxo-lane-3-carboxamide]: on NLRP3 inflammasome, the “Average (% positive control)” value is 15.216 % positive control; the “Average IL-1β” value stood at 1.091 ng/mL; the “IL-1β” value is 1.160 ng/mL and 1.071 ng/mL and 1.041 ng/mL. Besides, the “Average (% positive control)” value in the assay on BMDCs is 27.161 % positive control. Further, the cytotoxicity at 50 µM in the assay on BMDCs (setting [1]) was 19.9%. For the same compound, the cytotoxicity at 50 µM with BMDCs (setting [2]) was 19.4%.

(Values after patent publication US20240277658A1, “NLRP3 ACTIVATORS FOR USE IN THE TREATMENT OF INFECTIOUS DISEASES OR CANCER BY ACTIVATING NLRP3 INFLAMMASOME” (ALBERT-LUDWIGS-UNIVERSITÄT FREIBURG, priority 2020, published 2024).)
